Earlier results in patent US8309108B2, “Intranasal compositions” (Archimedes Development Limited, priority 2007, dated 2012).
Where a name gives a salt, the structure may show the parent alone.

Settings: room temperature

## CN1CCc2cccc3c2C1Cc1ccc(O)c(O)c1-3 (stereo not shown) [apomorphine hydrochloride, 6aβ-aporphine-10,11-diol]
  Saturated aqueous solubility: around 20 mg/ml
